Data as given in PMC5613016, “GRL-09510, a Unique P2-Crown-Tetrahydrofuranylurethane -Containing HIV-1 Protease Inhibitor, Maintains Its Favorable Antiviral Activity against Highly-Drug-Resistant HIV-1 Variants in vitro” (Scientific Reports, 2017).

Legend:
Type in all cases: cell-based
HIV-1NL4-3 [1] = assay: In vitro selection of resistant HIV-1 variants in MT-4 cells; details: HIV-1NL4-3 in MT-4 cells, increasing concentrations
Text: MT-4 cells (10^5/ml) were exposed to HIV-1NL4-3 (500 TCID50) and cultured in the presence of compounds at an initial concentration of its EC50 value. Viral replication was monitored by the determination of the amount of p24 produced by MT-4 cells. The supernatants were harvested on day 7 and were used to infect fresh MT-4 cells for the next round of culture in the presence of increasing concentrations of each compound. Proviral DNAs obtained from the lysates of infected cells were subjected to sequencing. This selection procedure was carried out until the drug concentration reached 5 μM as previously described[20]–[22]).

MT-2 cells = assay: Cytotoxicity against MT-2 cells (MTT assay)
Experimental: (§1) The susceptibility of HIV-1LAI or HIV-2ROD to various compounds was determined as previously described[20]–[22]. Briefly, MT-2 cells (10^4/ml) were exposed to 100 TCID50 of HIV-1LAI or HIV-2ROD in the presence or absence of various concentrations of compounds in 96-well plates and were incubated at 37 °C for 7 days. After incubation, 100 μl of the medium was removed from each well, 3-(4,5-dimetylthiazol-2-yl)-2,5-diphenyltetrazolium bromide (MTT) solution (10 μl, 7.5 mg/ml in PBS) was added to each well, followed by incubation at 37 °C for 2 h. […] To determine the sensitivity of clinically isolated HIV-1s to compounds, PHA-PBMC (10^6/ml) were exposed to 50 TCID50 of each HIV-1 and cultured in the presence or absence of various concentrations of compounds in 10-fold serial dilutions in 96-well plates. In determining the drug-susceptibility of certain laboratory HIV-1 strains, MT-4 cells were employed as target cells as previously described[23],[24]. MT-4 cells (10^5/ml) were exposed to 100 TCID50 of drug-resistant HIV-1s in the presence or absence of various concentrations of compounds and were incubated at 37 °C. On day 7, the supernatants were harvested and the amounts of p24 were determined by using a fully-automated chemiluminescent enzyme immunoassay system (Lumipulse f: Fujirebio, Tokyo)[35]–[37]. […] All assays were performed in duplicate, and EC50 shown in this report represent average values of two to four independent experiments. PHA-PBMCs were derived from a single donor in each independent experiment. The research protocols described in the present study were carried out in accordance with relevant guidelines and regulations, and were approved in Ethics Committee for Epidemiological and General Research at the Faculty of Life Sciences, Kumamoto University.

HIV-1ATV ^R 5μM = assay: p24 production inhibition in MT-4 cells
Experimental: as §1

HIV-1LPV ^R 5μM = assay: p24 production inhibition in MT-4 cells
Experimental: as §1

HIV-1APV ^R 5μM = assay: p24 production inhibition in MT-4 cells
Experimental: as §1

HIV-1NL4-3 [2] = assay: p24 production inhibition in MT-4 cells; details: MT-4 cells, p24 Gag production, Table 3
Experimental: as §1

HIV-2ROD = assay: microbe, parasite or virus in culture
Experimental: as §1

HIV-1LAI = assay: microbe, parasite or virus in culture
Experimental: as §1

HIV-1MDRmix DRV ^R 20P = assay: p24 production inhibition in PHA-PBMC
Experimental: as §1

HIV-1MDR/G = assay: p24 production inhibition in PHA-PBMC
Experimental: as §1

HIV-1MDR/TM = assay: p24 production inhibition in PHA-PBMC
Experimental: as §1

[3] = system: HIV-1ERS104pre (wild-type); assay: p24 production inhibition in PHA-PBMC; details: PHA-PBMC, p24 Gag production
Experimental: as §1

HIV-1MDR/C = assay: p24 production inhibition in PHA-PBMC
Experimental: as §1

HIV-1MDR/B = assay: p24 production inhibition in PHA-PBMC
Experimental: as §1

[4] = number in parentheses, compared to HIV-1NL4-3
[5] = compared to EC50 for HIV-1ERS104pre

Q: Which “passage at which selection concentration reached 5 µM” value (HIV-1NL4-3 [1]) does the source give for COc1ccc(S(=O)(=O)N(CC(C)C)CC(O)C(Cc2ccccc2)NC(=O)OC2C3COC4OCC2C4C3)cc1 (stereo not drawn) [GRL-09610] here?
A: Its value is about 43.

Q: And the CC50 (MT-2 cells)?
A: The CC50 was 33.1 ± 1 µM.

Q: What about the “fold change of EC50 HIV-1ATV ^R 5μM” value (HIV-1ATV ^R 5μM; [4]) of the same molecule?
A: Its value is 11.

Q: And the EC50 (HIV-1ATV ^R 5μM; read-out: EC50 HIV-1ATV ^R 5μM, MT-4 cells, p24 Gag production)?
A: Its EC50 is 35.4 ± 0.8 nM.

Q: And the “fold change of EC50 HIV-1LPV ^R 5μM” value (HIV-1LPV ^R 5μM; [4])?
A: The value was 10.

Q: And the EC50 (HIV-1LPV ^R 5μM; read-out: EC50 HIV-1LPV ^R 5μM, MT-4 cells, p24 Gag production)?
A: Its EC50 is 32 ± 1 nM.

Q: What about the “fold change of EC50 HIV-1APV ^R 5μM” value (HIV-1APV ^R 5μM; [4]) of the same molecule?
A: The value was 97.

Q: And the EC50 (HIV-1APV ^R 5μM; read-out: EC50 HIV-1APV ^R 5μM, MT-4 cells, p24 Gag production)?
A: Its EC50 is 310 ± 90 nM.

Q: And the EC50 (HIV-1NL4-3 [2])?
A: The EC50 was 3.2 ± 0.2 nM.

Q: What about the EC50 (HIV-2ROD; MT-2 cells, 100 TCID50, MTT assay, read-out: EC50 Against HIV-2ROD) of the same molecule?
A: Its EC50 is 15 ± 9 nM.

Q: What about the “Selectivity Index (CC50/EC50) MT2/HIV-2ROD” value (HIV-2ROD; ratio of CC50 to EC50 against HIV-2ROD) of the same molecule?
A: Its value is 2,207.

Q: What about the EC50 (HIV-1LAI; MT-2 cells, 100 TCID50, MTT assay, read-out: EC50 Against HIV-1LAI) of the same molecule?
A: The EC50 was 2.3 ± 0.7 nM.

Q: What about the “Selectivity Index (CC50/EC50) MT2/HIV-1LAI” value (HIV-1LAI; ratio of CC50 to EC50 against HIV-1LAI) of the same molecule?
A: The value was 14,391.

Q: What about the “fold change of EC50 HIV-1MDRmix DRV ^R 20P” value (HIV-1MDRmix DRV ^R 20P; [5]) of the same molecule?
A: The value was 78.

Q: And the EC50 (HIV-1MDRmix DRV ^R 20P; read-out: EC50 HIV-1MDRmix DRV ^R 20P, PHA-PBMC, p24 Gag production)?
A: The EC50 was 250 ± 30 nM.

Q: And the EC50 (HIV-1MDR/G; PHA-PBMC, p24 Gag production)?
A: Its EC50 is 15.8 ± 13.3 nM.

Q: What about the “fold change of EC50 HIV-1MDR/G” value (HIV-1MDR/G; [5]) of the same molecule?
A: Its value is 5.

Q: What about the EC50 (HIV-1MDR/TM; PHA-PBMC, p24 Gag production) of the same molecule?
A: Its EC50 is 28.9 ± 1.6 nM.

Q: What about the “fold change of EC50 HIV-1MDR/TM” value (HIV-1MDR/TM; [5]) of the same molecule?
A: The value was 9.

Q: And the EC50 [3]?
A: The EC50 was 3.2 ± 0.2 nM.

Q: And the EC50 (HIV-1MDR/C; PHA-PBMC, p24 Gag production)?
A: The EC50 was 4.9 ± 1.8 nM.

Q: What about the “fold change of EC50 HIV-1MDR/C” value (HIV-1MDR/C; [5]) of the same molecule?
A: The value was 2.

Q: What about the EC50 (HIV-1MDR/B; PHA-PBMC, p24 Gag production) of the same molecule?
A: Its EC50 is 14.5 ± 1.3 nM.

Q: What about the “fold change of EC50 HIV-1MDR/B” value (HIV-1MDR/B; [5]) of the same molecule?
A: Its value is 5.
